Laboratory results taken from publication PMC5578959, “Selective LRRK2 kinase inhibition reduces phosphorylation of endogenous Rab10 and Rab12 in human peripheral mononuclear blood cells” (Scientific Reports, 2017).

Experiments:
Test in all cases: KiNativ profiling in human PBMCs
Type in all cases: binding
JAK3 domain2 = system: T1, JAK3 domain2
T1 construct: JAK3 domain2; purchased ActivX Technologies (KiNativ)
Description: (§1) Compounds were shipped to ActivX Technologies (San Diego, US) where LRRK2 target engagement and broad kinase profiling was performed using KiNativ™ procedures. Live cell treatment of human peripheral blood mononuclear cells (PBMCs) at two compound concentrations (1 µM and 0.1 µM) were used to evaluate and compare in vitro target engagement and kinase selectivity, respectively (see Supplementary File 1).

CaMK1d = system: T2, CaMK1d
T2 construct: purchased ActivX Technologies (KiNativ)
Description: as §1

MAP3K5 = system: T3, MAP3K5; conditions: Lys2
T3 construct: purchased ActivX Technologies (KiNativ)
Description: as §1

LCK = system: T4, LCK; conditions: 1µM; Activation Loop
T4 construct: purchased ActivX Technologies (KiNativ)
Description: as §1

Erk2 = system: T5, Erk2; conditions: Lys2
T5 construct: purchased ActivX Technologies (KiNativ)
Description: as §1

KSR1,KSR2 = conditions: Activation Loop
Description: as §1

KSR1 = system: T6, KSR1; conditions: 0.1µM; Activation Loop
T6 construct: purchased ActivX Technologies (KiNativ)
Description: as §1

SGK3 = system: T7, SGK3; conditions: Lys2
T7 construct: purchased ActivX Technologies (KiNativ)
Description: as §1

PCTAIRE2 = system: T8, PCTAIRE2; conditions: Lys2
T8 construct: purchased ActivX Technologies (KiNativ)
Description: as §1

TLK1 = system: T9, TLK1
T9 construct: purchased ActivX Technologies (KiNativ)
Description: as §1

PRP4 = system: T10, PRP4; conditions: Other
T10 construct: purchased ActivX Technologies (KiNativ)
Description: as §1

YANK3 = system: T11, YANK3; conditions: Lys2
T11 construct: purchased ActivX Technologies (KiNativ)
Description: as §1

MAP2K6 = system: T12, MAP2K6
T12 construct: purchased ActivX Technologies (KiNativ)
Description: as §1

IKKb = system: T13, IKKb; conditions: Lys2
T13 construct: purchased ActivX Technologies (KiNativ)
Description: as §1

MAST3 = system: T14, MAST3; conditions: Lys2
T14 construct: purchased ActivX Technologies (KiNativ)
Description: as §1

ABL,ARG = conditions: Activation Loop
Description: as §1

STLK3 = system: T15, STLK3; conditions: Lys2
T15 construct: purchased ActivX Technologies (KiNativ)
Description: as §1

HCK = system: T16, HCK; conditions: Activation Loop
T16 construct: purchased ActivX Technologies (KiNativ)
Description: as §1

p70S6K = system: T17, p70S6K; conditions: Lys2
T17 construct: purchased ActivX Technologies (KiNativ)
Description: as §1

[1] = system: CaMK2a,CaMK2b,CaMK2d,CaMK2g; conditions: Lys2
Description: as §1

ULK3 = system: T18, ULK3
T18 construct: purchased ActivX Technologies (KiNativ)
Description: as §1

CK1g2 = system: T19, CK1g2; conditions: Lys2
T19 construct: purchased ActivX Technologies (KiNativ)
Description: as §1

ARAF = system: T20, ARAF; conditions: Lys2
T20 construct: purchased ActivX Technologies (KiNativ)
Description: as §1

QSK = system: T21, QSK; conditions: Lys1
T21 construct: purchased ActivX Technologies (KiNativ)
Description: as §1

NEK9 = system: T22, NEK9
T22 construct: purchased ActivX Technologies (KiNativ)
Description: as §1

NEK6,NEK7 = conditions: Lys2
Description: as §1

SMG1 = system: T23, SMG1; conditions: ATP
T23 construct: purchased ActivX Technologies (KiNativ)
Description: as §1

MST2 = system: T24, MST2; conditions: 1µM; Lys1
T24 construct: purchased ActivX Technologies (KiNativ)
Description: as §1

MAP3K1 = system: T25, MAP3K1; conditions: Lys2
T25 construct: purchased ActivX Technologies (KiNativ)
Description: as §1

MARK1,MARK2 = conditions: Lys1
Description: as §1

ILK = system: T26, ILK
T26 construct: purchased ActivX Technologies (KiNativ)
Description: as §1

FER = system: T27, FER
T27 construct: purchased ActivX Technologies (KiNativ)
Description: as §1

ULK1 = system: T28, ULK1; conditions: Lys2
T28 construct: purchased ActivX Technologies (KiNativ)
Description: as §1

p38d,p38g = conditions: Lys2
Description: as §1

FGR = system: T29, FGR; conditions: Activation Loop
T29 construct: purchased ActivX Technologies (KiNativ)
Description: as §1

MLKL = system: T30, MLKL; conditions: Lys1
T30 construct: purchased ActivX Technologies (KiNativ)
Description: as §1

SMILES: Cc1cccc(-c2cc(Nc3ccn(C)n3)nc3[nH]cc(C#N)c23)c1 [Lu AF58786]
- Inhibition (JAK3 domain2; 0.1µM, Activation Loop): 4.0%
- Inhibition (JAK3 domain2; 0.1µM, Lys1): 12.9%
- Inhibition (JAK3 domain2; 1µM, Activation Loop): 52.9%
- Inhibition (JAK3 domain2; 1µM, Lys1): 20.6%
- Inhibition (CaMK1d; 0.1µM, Lys1): 11.8%
- Inhibition (CaMK1d; 0.1µM, Lys2): -11.6%
- Inhibition (CaMK1d; 1µM, Lys1): -4.5%
- Inhibition (CaMK1d; 1µM, Lys2): -6.3%
- Inhibition (MAP3K5; 0.1µM): 4.3%
- Inhibition (MAP3K5; 1µM): -3.2%
- Inhibition (LCK): 5.7%
- Inhibition (Erk2; 0.1µM): 2.4%
- Inhibition (Erk2; 1µM): 1.7%
- Inhibition (KSR1,KSR2; 0.1µM): 12.4%
- Inhibition (KSR1,KSR2; 1µM): -3.6%
- Inhibition (KSR1): -19.0%
- Inhibition (SGK3; 0.1µM): -8.9%
- Inhibition (SGK3; 1µM): 13.9%
- Inhibition (PCTAIRE2; 0.1µM): 18.1%
- Inhibition (PCTAIRE2; 1µM): -0.164%
- Inhibition (TLK1; 0.1µM, Lys1): 2.2%
- Inhibition (TLK1; 0.1µM, Lys2): 16.2%
- Inhibition (TLK1; 1µM, Lys1): 15.4%
- Inhibition (TLK1; 1µM, Lys2): 4.7%
- Inhibition (PRP4; 0.1 µM): -2.3%
- Inhibition (PRP4; 1 µM): 3.0%
- Inhibition (YANK3; 0.1µM): 11.1%
- Inhibition (YANK3; 1µM): -8.5%
- Inhibition (MAP2K6; 0.1µM, Lys1): 2.0%
- Inhibition (MAP2K6; 0.1µM, Lys2): 5.6%
- Inhibition (MAP2K6; 1µM, Lys1): 2.8%
- Inhibition (MAP2K6; 1µM, Lys2): -7.5%
- Inhibition (IKKb; 0.1µM): 11.5%
- Inhibition (IKKb; 1µM): -4.3%
- Inhibition (MAST3; 0.1µM): 11.5%
- Inhibition (MAST3; 1µM): 0.2%
- Inhibition (ABL,ARG; 0.1µM): -81.9%
- Inhibition (ABL,ARG; 1µM): -7.3%
- Inhibition (STLK3; 0.1µM): 22.4%
- Inhibition (STLK3; 1µM): -36.2%
- Inhibition (HCK; 0.1µM): -0.451%
- Inhibition (HCK; 1µM): -12.8%
- Inhibition (p70S6K; 0.1µM): -7.6%
- Inhibition (p70S6K; 1µM): -5.7%
- Inhibition ([1]; 0.1µM): -12.1%
- Inhibition ([1]; 1µM): -1.0%
- Inhibition (ULK3; 0.1µM, Lys1): 3.2%
- Inhibition (ULK3; 0.1µM, Lys2): -16.6%
- Inhibition (ULK3; 1µM, Lys1): 2.2%
- Inhibition (ULK3; 1µM, Lys2): -15.6%
- Inhibition (CK1g2; 0.1µM): 5.2%
- Inhibition (CK1g2; 1µM): -0.12%
- Inhibition (ARAF; 0.1µM): -4.9%
- Inhibition (ARAF; 1µM): -4.5%
- Inhibition (QSK; 0.1µM): 15.6%
- Inhibition (QSK; 1µM): 28.4%
- Inhibition (NEK9; 0.1µM, Lys1): 8.4%
- Inhibition (NEK9; 0.1µM, Lys2): 12.6%
- Inhibition (NEK9; 1µM, Lys1): -0.0314%
- Inhibition (NEK9; 1µM, Lys2): -3.7%
- Inhibition (NEK6,NEK7; 0.1µM): 15.4%
- Inhibition (NEK6,NEK7; 1µM): -5.8%
- Inhibition (SMG1; 0.1 µM, DTVTIHSVGGTITILPTKTKPK): -6.3%
- Inhibition (SMG1; 0.1 µM, SYPYLFKGLEDLHLDER): 12.6%
- Inhibition (SMG1; 1 µM, DTVTIHSVGGTITILPTKTKPK): -13.9%
- Inhibition (SMG1; 1 µM, SYPYLFKGLEDLHLDER): 4.3%
- Inhibition (MST2): 11.8%
- Inhibition (MAP3K1; 0.1µM): 9.1%
- Inhibition (MAP3K1; 1µM): 0.247%
- Inhibition (MARK1,MARK2; 0.1µM): 16.5%
- Inhibition (MARK1,MARK2; 1µM): 7.1%
- Inhibition (ILK; 0.1µM, Lys1): 2.8%
- Inhibition (ILK; 0.1µM, Protein Kinase Domain): -27.2%
- Inhibition (ILK; 1µM, Lys1): 5.7%
- Inhibition (ILK; 1µM, Protein Kinase Domain): -1.7%
- Inhibition (FER; 0.1µM, Activation Loop): -5.4%
- Inhibition (FER; 0.1µM, Lys1): 1.7%
- Inhibition (FER; 1µM, Activation Loop): -16.1%
- Inhibition (FER; 1µM, Lys1): 5.0%
- Inhibition (ULK1; 0.1µM): -3.7%
- Inhibition (ULK1; 1µM): -7.0%
- Inhibition (p38d,p38g; 0.1µM): 7.1%
- Inhibition (p38d,p38g; 1µM): -0.541%
- Inhibition (FGR; 0.1µM): 11.4%
- Inhibition (FGR; 1µM): 5.2%
- Inhibition (MLKL; 0.1µM): -7.9%
- Inhibition (MLKL; 1µM): -7.5%
